Reference: patent US10336701B2, “Pyridin-2-one derivatives of formula (II) useful as EP3 receptor antagonists” (Janssen Pharmaceutica NV, priority 2017, dated 2019)

Legend:
[1] = target: T1, EP3 receptor (Homo sapiens, UniProt P43115); assay: [3H]-PGE2 binding assay (EP3 competition binding); details: read-out: [3H]-PGE2 Binding Ki
T1 construct: purchased Millipore HTS092M
T1 sequence (P43115 1-390): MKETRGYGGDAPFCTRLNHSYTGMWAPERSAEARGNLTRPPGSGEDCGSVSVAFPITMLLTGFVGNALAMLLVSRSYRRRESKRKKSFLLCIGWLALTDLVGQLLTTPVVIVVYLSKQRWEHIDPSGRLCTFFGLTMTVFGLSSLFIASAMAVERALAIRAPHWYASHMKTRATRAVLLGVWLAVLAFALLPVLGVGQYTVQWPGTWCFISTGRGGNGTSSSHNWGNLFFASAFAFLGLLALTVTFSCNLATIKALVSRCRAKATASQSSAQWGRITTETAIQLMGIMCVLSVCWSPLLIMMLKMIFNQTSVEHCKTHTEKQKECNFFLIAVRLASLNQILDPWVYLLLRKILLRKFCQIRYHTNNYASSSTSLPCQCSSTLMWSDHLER
How it was run: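 Scintillation-bead competition binding with EP3 membranes (2 μg/well), 2 nM [3H]-PGE2, 0.1% DMSO, in 50 mM Tris, 10 mM MgCl2, 1 mM EDTA, pH 7.4.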

[2] = target: T1, EP3 receptor; assay: CHO cell cAMP assay (forskolin and sulprostone stimulated, HTRF); assay type: cell-based; details: CHO cells; sulprostone 700 nM (EC80) and FSK 2 μM (EC70), 37° C. for 30 minutes; read-out: CHO_cAMP IC50

Row | SMILES | Ki [1] [nM] | IC50 [2] [nM]
1 | CC(C)C(C(=O)NC1CCSCC1)c1ccc(-c2ccc3cccc(F)c3c2)[nH]c1=O (stereo not shown) [compound 183, 2-(6-(8-fluoronaphthalen-2-yl)-2-oxo-1,2-dihydropyridin-3-yl)-3-methyl-N-(tetrahydro-2H-thiopyran-4-yl)butanamide] | 3 | 1
2 | N#CC1(OC(N)=O)CCCC(c2ccc(-c3ccc4ccccc4c3)[nH]c2=O)C1 (stereo not shown) [compound 185, 1-cyano-3-(6-(naphthalen-2-yl)-2-oxo-1,2-dihydropyridin-3-yl)cyclohexyl carbamate] | 31 | 314
3 | CS(=O)(=O)N1CCC(c2ccc(-c3ccc4ccccc4c3)[nH]c2=O)CC1 [compound 186, 3-(1-(methylsulfonyl)piperidin-4-yl)-6-(naphthalen-2-yl)pyridin-2(1H)-one] | 40 | 2830
4 | O=c1[nH]c(-c2ccc3ccccc3c2)ccc1C1CCc2oncc2C1 (stereo not shown) [compound 187, 6-(naphthalen-2-yl)-3-(4,5,6,7-tetrahydrobenzo[d]isoxazol-5-yl)pyridin-2(1H)-one] | > 10000 | > 20000
5 | O=C1NC(=O)C2(CCCC(c3ccc(-c4ccc5ccccc5c4)[nH]c3=O)C2)O1 (stereo not drawn) [compound 188, anti-7-(6-(naphthalen-2-yl)-2-oxo-1,2-dihydropyridin-3-yl)-1-oxa-3-azaspiro[4.5]decane-2,4-dione] | 15 | 120
6 | CCS(=O)(=O)N1CCC(c2ccc(-c3ccc4ccccc4c3)[nH]c2=O)CC1 [compound 190, 3-(1-(ethylsulfonyl)piperidin-4-yl)-6-(naphthalen-2-yl)pyridin-2(1H)-one] | 32 | 614
7 | O=c1[nH]c(-c2ccc3ccccc3c2)ccc1C1CCOCC1 [compound 192, 6-(naphthalen-2-yl)-3-(tetrahydro-2H-pyran-4-yl)pyridin-2(1H)-one] | 60 | 1330
8 | O=c1[nH]c(-c2ccc3ccccc3c2)ccc1C1CCNCC1 [compound 194, 6-(naphthalen-2-yl)-3-(piperidin-4-yl)pyridin-2(1H)-one] | > 10000 | > 20000
9 | O=c1[nH]c(-c2ccc3ccccc3c2)ccc1C1CCc2n[nH]cc2C1 (stereo not shown) [compound 195, 6-(naphthalen-2-yl)-3-(4,5,6,7-tetrahydro-2H-indazol-5-yl)pyridin-2(1H)-one] | 42 | 286
10 | CCn1ncc2c(F)cc(-c3ccc(C4CCC5(CCCNC5=O)CC4)c(=O)[nH]3)cc21 (stereo not shown) [compound 196, 9-(6-(1-ethyl-4-fluoro-1H-indazol-6-yl)-2-oxo-1,2-dihydropyridin-3-yl)-2-azaspiro[5.5]undecan-1-one] | 8 | 87
11 | CCn1ncc2c(F)cc(-c3ccc(C4CCN(C(=O)CO)CC4)c(=O)[nH]3)cc21 [compound 197, 6-(1-ethyl-4-fluoro-1H-indazol-6-yl)-3-(1-(2-hydroxyacetyl)piperidin-4-yl)pyridin-2(1H)-one] | 169 | 967
12 | CCn1ncc2c(F)cc(-c3ccc(C4CCN(S(=O)(=O)C(C)C)CC4)c(=O)[nH]3)cc21 [compound 198, 6-(1-ethyl-4-fluoro-1H-indazol-6-yl)-3-(1-(isopropylsulfonyl)piperidin-4-yl)pyridin-2(1H)-one] | 19 | 530
13 | CC(C)S(=O)(=O)N1CCC(c2ccc(-c3ccc4cc(F)ccc4c3)[nH]c2=O)CC1 [compound 199, 6-(6-fluoronaphthalen-2-yl)-3-(1-(isopropylsulfonyl)piperidin-4-yl)pyridin-2(1H)-one] | > 10000 | > 20000
14 | CC(C)S(=O)(=O)N1CCC(c2ccc(-c3ccc4ccccc4c3)[nH]c2=O)CC1 [compound 200, 3-(1-(isopropylsulfonyl)piperidin-4-yl)-6-(naphthalen-2-yl)pyridin-2(1H)-one] | 38 | 1250
15 | O=C1NC(=O)C2(CCC(c3ccc(-c4ccc5ccccc5c4)[nH]c3=O)CC2)N1 (stereo not shown) [compound 203, 8-(6-(naphthalen-2-yl)-2-oxo-1,2-dihydropyridin-3-yl)-1,3-diazaspiro[4.5]decane-2,4-dione] | 106 | 1410
16 | CCn1ncc2c(F)cc(-c3ccc(C4CCCN(S(=O)(=O)C(C)C)C4)c(=O)[nH]3)cc21 (stereo not shown) [compound 211, 6-(1-ethyl-4-fluoro-1H-indazol-6-yl)-3-(1-(isopropylsulfonyl)piperidin-3-yl)pyridin-2(1H)-one] | 5 | 37

Row | SMILES | Ki [1] [nM] | IC50 [2] [nM]
17 | CCn1ncc2c(F)cc(-c3ccc(C4CCN(S(=O)(=O)C(C)C)C4)c(=O)[nH]3)cc21 (stereo not shown) [compound 213, 6-(1-ethyl-4-fluoro-1H-indazol-6-yl)-3-(1-(isopropylsulfonyl)pyrrolidin-3-yl)pyridin-2(1H)-one] | 7 | 281
18 | CCn1ncc2c(F)cc(-c3ccc(C4CN(S(=O)(=O)C(C)C)C4)c(=O)[nH]3)cc21 [compound 214, 6-(1-ethyl-4-fluoro-1H-indazol-6-yl)-3-(1-(isopropylsulfonyl)azetidin-3-yl)pyridin-2(1H)-one] | > 10000 | > 20000
19 | CC(C)C(F)(C(N)=O)c1ccc(-c2ccc3ccccc3c2)[nH]c1=O (stereo not shown) [compound 217, 2-fluoro-3-methyl-2-(6-(naphthalen-2-yl)-2-oxo-1,2-dihydropyridin-3-yl)butanamide] | 49 | 1140
20 | NC(=O)C1(c2ccc(-c3ccc4ccccc4c3)[nH]c2=O)CCCC1 [compound 219, 1-(6-(naphthalen-2-yl)-2-oxo-2,3-dihydropyridin-3-yl)cyclopentanecarboxamide] | 108 | 4070
21 | CC(C)C(C(=O)NS(C)(=O)=O)c1ccc(-c2ccc3ccccc3c2)[nH]c1=O (stereo not shown) [compound 221, 3-methyl-N-(methylsulfonyl)-2-(6-(naphthalen-2-yl)-2-oxo-1,2-dihydropyridin-3-yl)butanamide] | 51 | 243
22 | CC1(c2ccc(-c3ccc4ccccc4c3)[nH]c2=O)N=CNC1=O (stereo not shown) [compound 222, 3-(4-methyl-5-oxo-4,5-dihydro-1H-imidazol-4-yl)-6-(naphthalen-2-yl)-1,2-dihydropyridin-2-one] | 327 | 4270
23 | CC1=NC(C)(c2ccc(-c3ccc4ccccc4c3)[nH]c2=O)C(=O)N1 (stereo not shown) [compound 223, 3-(2,4-dimethyl-5-oxo-4,5-dihydro-1H-imidazol-4-yl)-6-(naphthalen-2-yl)-1,2-dihydropyridin-2-one] | 496 | 3580
24 | CC(C)C(F)(C(=O)NS(C)(=O)=O)c1ccc(-c2ccc3ccccc3c2)[nH]c1=O (stereo not shown) [compound 224, 2-fluoro-3-methyl-N-(methylsulfonyl)-2-(6-(naphthalen-2-yl)-2-oxo-1,2-dihydropyridin-3-yl)butanamide] | 1290 | 10800
25 | CC(C)C(O)(C(N)=O)c1ccc(-c2ccc3c(c2)OCCN3C)[nH]c1=O (stereo not shown) [compound 225, 2-hydroxy-3-methyl-2-(6-(4-methyl-3,4-dihydro-2H-benzo[b][1,4]oxazin-7-yl)-2-oxo-1,2-dihydropyridin-3-yl)butanamide] | 343 | 4570
26 | NC(=O)C(C1=CCCCC1)c1ccc(-c2ccc3ccccc3c2)[nH]c1=O (stereo not shown) [compound 226, 2-(cyclohex-1-en-1-yl)-2-(6-(naphthalen-2-yl)-2-oxo-1,2-dihydropyridin-3-yl)acetamide] | 186 | 4960
27 | CC(C)C(C(=O)NCCOCCOCCN(C)C)c1ccc(-c2ccc3cccc(F)c3c2)[nH]c1=O (stereo not shown) [compound 229, N-(2-(2-(2-(dimethylamino)ethoxy)ethoxy)ethyl)-2-(6-(8-fluoronaphthalen-2-yl)-2-oxo-1,2-dihydropyridin-3-yl)-3-methylbutanamide] | 12 | 142
28 | CC(C)C(C)(C(N)=O)c1ccc(-c2ccc3ccccc3c2)[nH]c1=O (stereo not shown) [compound 232, 2,3-dimethyl-2-(6-(naphthalen-2-yl)-2-oxo-1,2-dihydropyridin-3-yl)butanamide] | 125 | 1630
29 | CC(C)C(C(=O)NCCOCCN(C)C)c1ccc(-c2ccc3cccc(F)c3c2)[nH]c1=O (stereo not shown) [compound 233, N-(2-(2-(dimethylamino)ethoxy)ethyl)-2-(6-(8-fluoronaphthalen-2-yl)-2-oxo-1,2-dihydropyridin-3-yl)-3-methylbutanamide] | 15 | 325
30 | CC(C)C1(c2ccc(-c3ccc4cccc(F)c4c3)[nH]c2=O)N=C(NC#N)NC1=O (stereo not shown) [compound 236, N-(4-(6-(8-fluoronaphthalen-2-yl)-2-oxo-1,2-dihydropyridin-3-yl)-4-isopropyl-5-oxo-4,5-dihydro-1H-imidazol-2-yl)cyanamide] | 2 | 6
31 | CO/N=C1\NC(=O)C(c2ccc(-c3ccc4cccc(F)c4c3)[nH]c2=O)(C(C)C)N1 (stereo not shown) [compound 237, (Z)-6-(8-fluoronaphthalen-2-yl)-3-(4-isopropyl-2-(methoxyimino)-5-oxoimidazolidin-4-yl)pyridin-2(1H)-one] | 4 | 12
32 | COc1ccc2cc(-c3ccc(C(C(=O)NCCN(C)C)C(C)C)c(=O)[nH]3)ccc2c1 (stereo not shown) [compound 241] | 637 | 9630
